In US7579488B2 (Eli Lilly and Company, priority 2003, dated 2009):
Where “and” joins values, the source holds several entries; their conditions need not be identical. Equal entries are not always repeated. Where two headings read alike, the source gives them in different places.

How the values were obtained:
female DBF mice = assay: Mouse hypercalcemia assay; conditions: oral gavage for 6 days
Description: The Mouse Hypercalcemia Assay
The Mouse Hypercalcemia Assay is a six day hypercalcemia test for toxicity and selectivity.
(4) Materials and Method for the Mouse Hypercalcemia Assay:
Weanling, virus-antibody-free, five to six weeks old female DBF mice (Harlan, Indianapolis, Ind.) are used for all the studies. Animals are allowed to acclimate to local vivarium conditions for 2 days. […] The animals then are divided into groups with 4-5 mice per group. Different doses of test compounds prepared in 10% Ethanol and 90% sesame oil are administered to mice orally via gavage for 6 days. 1α-25(OH)2D3 0.5 μg/kg/d was also given to one group of mice as the positive control. […] Raw data of group differences is assessed by analysis of variance (ANOVA) using Fisher's protected least significant difference (PLSD) where the significance level was P<0.05.

KERtr cells = assay: Keratinocyte proliferation assay; type: cell-based; conditions: Homo sapiens, read-out: Kera. Prolif. IC50
Method: 5. The Keratinocyte Proliferation Assay
This Assay is indicative for the treatment of psoriasis.
(5) The Keratinocyte Proliferation Assay:
KERtr cells (Human skin keratinocyte transformed with a retrovirus vector, obtained from ATCC) were plated in 96-well flat-bottomed plates (3000 cells/well) in 100 μl keratinocyte serum free medium supplemented with bovine pituitary extract in the absence of EGF (Life Technologies, Rockville, Md.) and incubated at 37° C. for two days. The cells were treated with various concentrations of VDR ligands (ten-fold serial dilution from 10,000 nM to 0.1 nM in triplicate), dissolved in 100 μl keratinocyte serum free medium supplemented with bovine pituitary extract in the absence of EGF and incubated at 37° C. for 72 hr. […] Potency values (IC50) values were determined as the concentration (nM) of compound that elicited a half-maximal response.

rat osteocalcin promoter = assay: OCN (osteocalcin) promoter assay; type: cell-based; conditions: RG-15 (ROS 17/2.8) cells
Method: 3. The OCN (Osteocalcin) Promoter Assay
The OCN Promoter Assay is an indicator and marker for osteoporosis. […] Preferred assay results are less than 50 nM.
(3) Materials and Method for The OCN Promoter Assay:
The activation of osteocalcin by VDR ligands was evaluated in a rat osteoblast-like cell line RG-15 (ROS 17/2.8) stably expressing rat osteocalcin promoter fused with luciferase reporter gene. […] Confluent RG-15 cells maintained in DMEM/F-12 medium (3:1) containing 5% FBS, 300 μg/ml G418 and at 37° C. under 5% CO2/95% air atmosphere were trypsinized (0.25% trypsin) and plated into white opaque 96-well cell culture plates (25000 cells/well). After 24 hr, cells (in DMEM/F-12 medium+2% FBS) were treated with various concentrations of compounds, dissolved in DMSO. The final DMSO concentration remained at 0.01% (v/v). After 48 hr treatment, the medium was removed, cells were lysed with 50 μl of lysis buffer (From Luciferase reporter assay system, Roche Diagnostics, Indianapolis, Ind.) and assayed for luciferase activity using the Luciferase Reporter Gene Assay kit from Boehringer Mannheim as per manufacturer's specifications.

VDR = target: T1, VDR (Homo sapiens, UniProt P11473); assay: VDR CTF (Caco-2 cell co-transfection) assay; type: cell-based; conditions: Caco-2 cells, pGal4-VDR-LBD co-transfection, luciferase; several values separated by /
T1 construct: the receptor expression vector pGal4-VDR-LBD (10 ng); expressed in transfected cells; host or cells: Caco-2 cells
T1 sequence (P11473 127-423 limits assumed): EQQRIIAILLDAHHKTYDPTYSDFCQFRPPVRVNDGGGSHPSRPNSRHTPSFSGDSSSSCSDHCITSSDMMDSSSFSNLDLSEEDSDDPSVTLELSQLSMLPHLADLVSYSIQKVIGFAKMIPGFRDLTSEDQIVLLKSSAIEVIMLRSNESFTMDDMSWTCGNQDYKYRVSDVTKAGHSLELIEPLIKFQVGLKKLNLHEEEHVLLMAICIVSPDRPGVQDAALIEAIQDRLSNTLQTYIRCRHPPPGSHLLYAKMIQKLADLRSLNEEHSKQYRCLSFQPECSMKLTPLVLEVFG
Method: 2. The Caco-2 Cell Co-Transfection Assay:
The Caco-2 cell assay is an indicator for the undesirable condition of hypercalcemia. This co-transfection assay is a surrogate assay for in vivo calcemic activity of VDR ligands. […] Preferred assay results are greater than 1000 nM.
(2) Materials and Method for the Caco-2 Cell Assay:
Caco-2 cells, grown in phenol red free, DMEM (Invitrogen, Carlsbad, Calif.) containing 10% charcoal-stripped FCS (Hyclone, Logan, Utah), were transfected with Fugene 6 reagent (Roche Diagnostics, Indianapolis, Ind.). Cells (5000/well) were plated 18 h before transfection in a 96 well plate. The Cells were transfected with Gal4-responsive reporter pFRLuc (150 ng, Stratagene, La Jolla Calif.) and the receptor expression vector pGal4-VDR-LBD (10 ng), along with Fugene 6 reagent (0.2 μl/well). The DNA-Fugene complex was formed by incubating the mixture for 30 min at room temperature. The cells were transfected in triplicate for 5 h, and treated with various concentrations of VDR ligands (form 0.01 nM to 10,000 nM concentration range) 18 h post-transfection. The luciferase activity was quantified using Steady-Glo reagent kit (Promega, Madison, Wis.) as per manufacturer's specifications.

RXR-VDR heterodimer = target: T2, RXR-VDR heterodimer (Homo sapiens, UniProt P11473); assay: RXR-VDR heterodimerization assay (SaOS-2 cells); type: cell-based; conditions: Gal4-RXR-DEF/VP16-VDR-LBD luciferase reporter, several values in a cell separated by /
T2 construct: Add the Gal4-RXR-DEF and VP16-VDR-LBD; expressed in transfected cells; host or cells: SaOS-2 cells
T2 sequence (P11473 127-423 limits assumed): T1 sequence (P11473 127-423 limits assumed)
T2 sequence (P19793 201-462 partner limits assumed): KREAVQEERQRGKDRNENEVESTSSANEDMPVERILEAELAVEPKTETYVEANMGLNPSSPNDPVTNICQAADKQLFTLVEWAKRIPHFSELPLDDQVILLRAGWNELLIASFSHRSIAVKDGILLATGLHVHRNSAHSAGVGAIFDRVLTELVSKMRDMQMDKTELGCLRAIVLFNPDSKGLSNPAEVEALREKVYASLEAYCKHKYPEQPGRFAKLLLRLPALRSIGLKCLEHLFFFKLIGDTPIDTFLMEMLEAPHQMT
Method: 1. The RXR-VDR Heterodimer Assay:
This assay provides the VDR activity of a test compound.
(1) Materials and Method for RXR-VDR Heterodimerization Assay:
Luciferase Assay Reagent: • Use Steady-Glo Luciferase Reagent from Promega (Cat #E2550) Consists of: a. E2533 Assay Substrate, lyopholized product and b. E2543 Assay Buffer. • Thaw at room temperature • Store Cell Harvesting Aspirate media from culture flask, rinse cells with HBSS and aspirate. Add trypsin and incubate. When cells appear detached, resuspend cells in growth media. Transfer into a new flask with fresh growth media for passaging the cells. Plate well plates and two extra plates A. Cell Count Mix the cell suspension using pipette Use Hematocytometer to count the cells Load cell suspension onto the hemocytometer chamber Count cells. […] In sterile flask add cell suspension to plating media. Mix. Add cells/well. Place the cells in the incubator. Cells should be about 75% confluent prior to transfection. DAY 2: Transfection Step 1: DNA and Media Add plain DMEM media to tubes for mixing the DNA Add the Reporter gene pFR-LUC Add the Gal4-RXR-DEF and VP16-VDR-LBD Step 2: FuGENE and Media Prepare plain DMEM media in a ubes for mixing FuGENE Add FuGENE 6 Transfection Reagent Incubate Step 3: FuGENE, DNA and Media Complex Add FuGENE Media complex from step 2 to DNA Media complex from step 1 Incubate Step 4: FuGENE, DNA and Media Complex to-well plate Add FuGENE-DNA-Media complex from step 3 to each plate Incubate. […] Day 4: Luciferase Assay Read the plates after drug treatment Remove part of media from all the wells and leave remainder Add Steady-Glo Luciferase Reagent mixture/wells Incubate Count each well using a Luminescence counter, Top Count NXT by Packard
Set a delay between plates to reduce the background.

[1] = Rattus norvegicus, comparison compounds
[2] = serum ionized calcium 6 hours after last dosing
[3] = 72 h, BrdU incorporation, several values separated by /
[4] = Rattus norvegicus, 48 h, 48 hr treatment, luciferase, several values separated by /
[5] = 48 hr treatment, luciferase, several values separated by /

CCC(CC)(c1ccc(OCC(=O)C(C)(C)C)c(C)c1)c1ccc(OCC(=O)C(C)(C)C)c(C)c1 [DD, reference compound]
Mouse Hypercal (female DBF mice; comparison compounds): 1000 µg/kg/day | IC50 (KERtr cells; comparison compounds): 1060 nM | EC50 (rat osteocalcin promoter; [1]): 31.1 nM

CCC(CC)(c1ccc(OCC(=O)C(C)(C)C)c(C)c1)c1ccc(OC[C@H](O)C(C)(C)C)c(C)c1 [EE, reference compound]
Mouse Hypercal (female DBF mice; comparison compounds): 1000 µg/kg/day | EC50 (rat osteocalcin promoter; [1]): 341 nM

CCC(CC)(c1ccc(OCC(=O)C(C)(C)C)c(C)c1)c1cc2ccc(C(=O)O)cc2o1 [Ex 18, 2-{1-[4-(3,3-dimethyl-2-oxo-butoxy)-3-methyl-phenyl]-1-ethyl-propyl}-benzofuran-6-carboxylic acid]
Mouse Hypercal (female DBF mice; [2]): >300 µg/kg/day | IC50 (KERtr cells; [3]): 25 nM | EC50 (rat osteocalcin promoter; [4]): 2 nM | EC50 (VDR): 472 nM

CCC(CC)(c1ccc(OCC(=O)C(C)(C)C)c(C)c1)c1cc2ccc(C(=O)NCC(=O)O)cc2o1 [Ex 20, [(2-{1-[4-(3,3-Dimethyl-2-oxo-butoxy)-3-methyl-phenyl]-1-ethyl-propyl}-benzofuran-6-carbonyl)-amino]-acetic acid]
IC50 (KERtr cells; [3]): 1000 nM | EC50 (RXR-VDR heterodimer): 264 nM and 68 nM | EC50 (VDR): 773 nM

CCC(CC)(c1ccc(OCC(=O)C(C)(C)C)c(C)c1)c1cc(C)c2oc(C(=O)NCC(=O)O)cc2c1 [Ex 28, [(5-{1-[4-(3,3-dimethyl-2-oxo-butoxy)-3-methyl-phenyl]-1-ethyl-propyl}-7-methyl-benzofuran-2-carbonyl)-amino]-acetic acid]
Mouse Hypercal (female DBF mice; [2]): >1000 µg/kg/day | IC50 (KERtr cells; [3]): 11 nM | EC50 (rat osteocalcin promoter; [4]): 4 nM

CCC(CC)(c1ccc(OCC(O)C(C)(C)C)c(C)c1)c1ccc2oc(C(=O)NCC(=O)O)cc2c1 (centres unmarked) [Ex 33, [(5-{1-ethyl-1-[4-(2-hydroxy-3,3-dimethyl-butoxy)-3-methyl-phenyl]-propyl}-benzofuran-2-carbonyl)-amino]-acetic acid]
EC50 (RXR-VDR heterodimer): 9 nM | EC50 (rat osteocalcin promoter; [4]): 0.4 nM | EC50 (VDR): 178 nM

CCC(CC)(c1ccc(OCC(=O)C(C)(C)C)c(C)c1)c1ccc2oc(C(=O)O)c(C)c2c1 [Ex 34, 5-{1-[4-(3,3-Dimethyl-2-oxo-butoxy)-3-methyl-phenyl]-1-ethyl-propyl}-3-methyl-benzofuran-2-carboxylic acid]
Mouse Hypercal (female DBF mice; [2]): >3000 µg/kg/day | EC50 (rat osteocalcin promoter; [5]): 21 nM | EC50 (rat osteocalcin promoter; [4]): 13 nM | EC50 (VDR): 896 nM

CCC(CC)(c1ccc(OCC(O)C(C)(C)C)c(C)c1)c1ccc2oc(C(=O)O)c(C)c2c1 (centres unmarked) [Ex 35, 5-{1-Ethyl-1-[4-(2-hydroxy-3,3-dimethyl-butoxy)-3-methyl-phenyl]-propyl}-3-methyl-benzofuran-2-carboxylic acid]
IC50 (KERtr cells; [3]): 700 nM | EC50 (rat osteocalcin promoter; [5]): 21 nM | EC50 (rat osteocalcin promoter; [4]): 13 nM | EC50 (VDR): 753 nM

CCC(CC)(c1ccc(OCC(O)C(C)(C)C)c(C)c1)c1ccc2oc(C(=O)N(C)C)c(C)c2c1 (centres unmarked) [Ex 37, 5-{1-ethyl-1-[4-(2-hydroxy-3,3-dimethyl-butoxy)-3-methyl-phenyl]-propyl}-3-methyl-benzofuran-2-carboxylic acid dimethylamide]
IC50 (KERtr cells; [3]): > 1000 nM | EC50 (RXR-VDR heterodimer): 777 nM and 133 nM | EC50 (VDR): 865 nM

CCC(CC)(c1ccc(OCC(O)C(C)(C)C)c(C)c1)c1ccc2oc(C(=O)NCC(=O)O)c(C)c2c1 (centres unmarked) [Ex 39, [(5-{1-ethyl-1-[4-(2-hydroxy-3,3-dimethyl-butoxy)-3-methyl-phenyl]-propyl}-3-methyl-benzofuran-2-carbonyl)-amino]-acetic acid]
IC50 (KERtr cells; [3]): 19 nM | EC50 (RXR-VDR heterodimer): 138 nM | EC50 (rat osteocalcin promoter; [4]): 0.4 nM | EC50 (VDR): 419 nM

CCC(CC)(c1ccc(OCC(O)C(C)(C)C)c(C)c1)c1cc2cc(C(=O)O)ccc2o1 (centres unmarked) [Ex. 4, 2-{1-Ethyl-1-[4-(2-hydroxy-3,3-dimethyl-butoxy)-3-methyl-phenyl]-propyl}-benzofuran-5-carboxylic acid]
EC50 (VDR): 312 nM and 368 nM

CCC(CC)(c1ccc(OCC(=O)C(C)(C)C)c(C)c1)c1cc2cc(C(=O)N(C)C)ccc2o1 [Ex. 5, 2-{1-[4-(3,3-Dimethyl-2-oxo-butoxy)-3-methyl-phenyl]-1-ethyl-propyl}-benzofuran-5-carboxylic acid dimethylamide]
EC50 (rat osteocalcin promoter; [5]): 79 nM | EC50 (rat osteocalcin promoter; [4]): 106 nM | EC50 (VDR): 1200 nM

CCC(CC)(c1ccc(OCC(O)C(C)(C)C)c(C)c1)c1cc2cc(C(=O)NCC(=O)O)ccc2o1 (centres unmarked) [Ex. 8, [(2-{1-Ethyl-1-[4-(2-hydroxy-3,3-dimethyl-butoxy)-3-methyl-phenyl]-propyl}-benzofuran-5-carbonyl)-amino]-acetic acid]
IC50 (KERtr cells; [3]): 0.3 nM | EC50 (RXR-VDR heterodimer): 6 nM and 2 nM | EC50 (rat osteocalcin promoter; [4]): 0.6 nM | EC50 (VDR): 120 nM

CCC(CC)(c1ccc(OCC(O)C(C)(C)C)c(C)c1)c1cc2cc(C(=O)Nc3nn[nH]n3)ccc2o1 (centres unmarked) [Ex. 13, 2-{1-Ethyl-1-[4-(2-hydroxy-3,3-dimethyl-butoxy)-3-methyl-phenyl]-propyl}-benzofuran-5-carboxylic acid (2H-tetrazol-5-yl)-amide]
IC50 (KERtr cells; [3]): > 1000 nM | EC50 (rat osteocalcin promoter; [4]): 3 nM | EC50 (VDR): 602 nM
